# How the values were obtained:
# PLCγ2 enzyme = target: T1, PLCγ2 enzyme (Homo sapiens, UniProt P16885); test: Liposomal biochemical assay with fluorogenic probe XY-69; conditions: for increase in PLCγ2 activity (change in slope relative to control): dose response, liposomes with XY-69
# T1 sequence (P16885 1-1265): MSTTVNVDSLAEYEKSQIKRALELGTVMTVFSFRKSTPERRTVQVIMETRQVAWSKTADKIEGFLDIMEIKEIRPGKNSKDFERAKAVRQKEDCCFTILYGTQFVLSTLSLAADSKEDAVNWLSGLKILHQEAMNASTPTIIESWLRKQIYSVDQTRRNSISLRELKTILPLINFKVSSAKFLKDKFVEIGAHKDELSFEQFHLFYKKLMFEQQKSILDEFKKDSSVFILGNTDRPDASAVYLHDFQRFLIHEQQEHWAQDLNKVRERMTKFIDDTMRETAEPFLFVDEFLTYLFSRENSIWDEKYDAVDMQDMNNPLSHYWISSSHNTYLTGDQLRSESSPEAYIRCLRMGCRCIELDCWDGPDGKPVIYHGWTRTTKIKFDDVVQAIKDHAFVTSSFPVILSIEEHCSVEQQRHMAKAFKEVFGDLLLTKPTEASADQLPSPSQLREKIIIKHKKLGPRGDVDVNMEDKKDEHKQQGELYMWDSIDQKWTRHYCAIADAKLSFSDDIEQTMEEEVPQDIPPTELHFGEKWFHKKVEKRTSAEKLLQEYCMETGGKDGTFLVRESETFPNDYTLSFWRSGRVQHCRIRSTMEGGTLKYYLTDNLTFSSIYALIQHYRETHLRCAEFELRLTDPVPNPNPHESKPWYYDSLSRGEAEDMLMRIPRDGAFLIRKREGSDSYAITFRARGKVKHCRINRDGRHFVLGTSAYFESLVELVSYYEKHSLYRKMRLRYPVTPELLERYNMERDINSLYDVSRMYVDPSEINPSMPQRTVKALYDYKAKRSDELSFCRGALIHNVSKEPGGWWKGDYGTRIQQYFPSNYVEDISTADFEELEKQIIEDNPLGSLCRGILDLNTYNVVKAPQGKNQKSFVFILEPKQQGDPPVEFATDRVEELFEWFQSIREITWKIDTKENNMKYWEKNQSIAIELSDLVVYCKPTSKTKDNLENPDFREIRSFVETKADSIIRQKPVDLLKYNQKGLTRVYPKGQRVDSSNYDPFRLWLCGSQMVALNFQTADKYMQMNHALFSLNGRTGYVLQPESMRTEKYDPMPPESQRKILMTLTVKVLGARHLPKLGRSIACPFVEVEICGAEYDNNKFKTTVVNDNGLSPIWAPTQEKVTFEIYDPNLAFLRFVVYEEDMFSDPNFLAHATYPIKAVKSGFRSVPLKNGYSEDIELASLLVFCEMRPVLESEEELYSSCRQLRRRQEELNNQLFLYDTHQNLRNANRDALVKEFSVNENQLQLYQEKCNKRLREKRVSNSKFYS
# Source text: Sondek and coworkers have described an assay for PLCγ1 activity in the presence of liposomes as a model for activity at the cell membrane where the natural ligand is located.^36 The assay was redeveloped and reoptimized for PLCγ2 at the Purdue Institute for Drug Discovery. Liposomes containing XY-69 (purchased from Avanti Polar Lipids, cat. #850168) were generated using phosphatidylinositol 4,5-bisphosphate (PIP2) and 1-stearoyl-2-arachidonoyl-sn-glycero-3-phosphatidylethanolamine (lipidPE). The PLCγ2 enzyme was exposed to this solution and, after treatment with the compounds of interest, the fluorescence intensity (ex: 485 nm; em: 520 nm) was recorded every 2 min for 120 min (FIG. 19). The slope of the linear portion of the curves (up to 50 min) was compared to control giving a relative rate of reaction. Dose dependent curves of a representative sample of the compounds tested are shown (FIG. 20A-20B).
# HMC3 cells = test: Microglial phagocytosis/cell health high-content assay, HMC3 cells; assay type: cell-based; conditions: 60 μM, 48 hrs, compared to control
# Method: (§1) The assay introduced here is a simplified cellular imaging assay without any fixation and washing steps, while producing multiparameter measurements with high capacity using a 384-well plate format. The assay procedures include plating cells on day 1, incubating cell plates overnight before treating cells on day 2, adding pHrodo™-myelin/membrane debris to cell plates on day 3, and 20 hr later, staining cell nuclei with Hoechst-33342 for 30 min before performing high-content imaging on day 4. Three selected parameters are measured from cells: 1) mean total fluorescence intensity per cell of pHrodo™-myelin/membrane debris in phagocytosis vesicles to quantify phagocytosis; 2) cell counts per well to quantify treatment effects on proliferation and cell death; and 3) average nuclear intensity to quantify treatment-induced nuclear changes such as in apoptosis. The assay has been used on HMC3 cells (an immortalized human microglial cell line), BV2 cells (an immortalized mouse microglial cell line), and primary microglia isolated from mouse brains. For initial assay attempts, we recommend using HMC3 cells available from the ATCC.
# (§2) All collected raw data are normalized to the untreated control with following formula: % of control=100×(X−Min)/(Max−Min). Factors in the formula are: X is raw data from a treated well, Max is an average measurement from pHrodo™-myelin seeded but untreated wells, and Min is an average measurement from no pHrodo™-myelin untreated wells. Normalized data are used for curve fitting that is done with the variable slope (four parameters) using the Prism software.
# (§3) To ensure that the measurements reflect the steady state of compound treatment effects and cell health, the assay was set with a total compound treatment time of 48 hr, including pHrodo™-myelin/membrane debris seeding performed 20-24 hr after compound addition. […] Among many available quantitative measurements from the image analysis, we selected three parameters for the assay:
# (§4) 1) The mean total intensity of phagocytosis vesicles/cell—to measure phagocytosis. There are multiple parameters generated from the image analysis, including phagocytosis vesicle area, number, and various fluorescence intensity measurements. Comparing these parameters, the total fluorescence intensity of vesicles/cell is the most sensitive one and was chosen for quantifying phagocytosis.
# (§5) 2) The total cell counts—to measure overall cell viability, which is affected by proliferation and cell death. We chose to take 4 images/well (with the 10× objective lens) that cover about 50% of the total area of a well in a 384-well plate to represent cell count of the well.
# (§6) 3) The average nuclear intensity—to measure drug-induced apoptosis, with high signal indicating nuclear condescension (a sign of early apoptosis) and low signal indicating DNA degradation (a sign of later apoptosis, when activated caspases digest DNA).
# (§7) A phenotypic high-content imaging assay with simultaneous measurements of phagocytosis, cell number, and nuclear intensity was used to assess both cellular pharmacology and cell health. Model cell lines BV2 (immortalized mouse microglia, a gift from Dr. Michelle Block's laboratory at IUSM) and HMC3 (immortalized human microglia, obtained from ATCC, CRL-3304) were used to provide adequate throughput. Cells were cultured in DMEM GlutaMax media (ThermoFisher) containing 10% FBS and Pen-Strep in a 37° C. 5% CO2 incubator, plated in Corning Falcon 384 well Optilux Black and clear bottom plates: 400 cells/45 μl/well (BV2 cells), 600 cells/45 μl/well (HMC3 cells) and 2000 cell/45 μl/well (primary cells), and treated with 10× serially diluted compounds (60 μM-3 nM) for 48 hrs at 37° C. […]
# BV2 cells = test: Microglial phagocytosis/cell health high-content assay, BV2 cells; assay type: cell-based; conditions: for Ave. % Cell Count @ 60 uM BV2 cells / Ave. % Phagocytosis @ 60 uM BV2 cells: 48 hrs, compared to control
# Method: as §1, §2, §3, §4, §5, §6, §7
SMILES,increase in PLCγ2 activity (change in slope relative to control) (PLCγ2 enzyme),increase in PLCγ2 activity (change in slope relative to control) (PLCγ2 enzyme; listed as m-3M3FBS),Ave. % Cell Count @ 60 uM HMC3 cells (HMC3 cells) [%],Ave. % Phagocytosis @ 60 uM HMC3 cells (HMC3 cells) [%],Ave. % Cell Count @ 60 uM BV2 cells (BV2 cells) [%],Ave. % Phagocytosis @ 60 uM BV2 cells (BV2 cells) [%],"enzymatic activation, single dose (PLCγ2 enzyme; 100 μM)","phagocytosis increase against cell count decline (BV2 cells; HMC3 and BV2 cells (Table 6, FIGS. 21, 22))"
"Cc1cc(C)c(S(=O)(=O)Nc2cccc(C(F)(F)F)c2)c(C)c1 [Compound 1, 2,4,6-trimethyl-N-(meta-3-trifluoromethyl-phenyl)-benzenesulfonamide, reference compound]",among the highest increases of all analogs tested,highest increase in response,3,0,2,0.05,–,–
"Cc1cc(C)c(S(=O)(=O)Nc2ccccc2C(F)(F)F)c(C)c1 [Compound 2, o-3M3FBS, reference compound]","much lower, though it still showed a statistically significant increase in activation",–,103,99,104,104,–,–
Cc1cc(C)c(S(=O)(=O)NC2CCCNC2)c(C)c1 (stereo not drawn) [Compound 11],–,–,65,146,63,225,no enzymatic activation,moderate degree of potential cytotoxicity
O=S(=O)(Nc1ccc(Br)cc1F)c1cccs1 [Compound 8],–,–,88,104,86,114,–,–
